# Patent publication EP4635944A1, “2-AZABICYCLO[3.1.1]HEPTANE COMPOUND” (Daiichi Sankyo Company, Limited, priority 2022, dated 2024)
# Legend:
# [1] = Evaluation of metabolic stability in human liver microsomes; type: in vitro ADME; settings: for Human metabolic stability Residual ratio (%): test compound 1 µM, human liver microsomes 0.5 mg/mL, 30 minutes at 37°C; for metabolic stability compared to the corresponding compounds that were not deuterated: human liver microsomes, 30 minutes, deuterated at specific positions
# Experimental: Evaluation of metabolic stability of OX2R agonist
# The test compound (final concentration was 1 µM, dissolved in DMSO/acetonitrile = 1/99), pooled human liver microsomes (final concentration was 0.5 mg/mL), and sodium phosphate buffer (pH 7.4, final concentration was 100 mM) were admixed and preincubated at 37°C for 15 minutes. Thereafter, a mixed solution of glucose-6-phosphate (final concentration was 10 mM), glucose-6-phosphate dehydrogenase (final concentration was 1 U/mL), and magnesium chloride (final concentration was 3.3 mM) was added and a certain amount of the mixture was collected. Then, an acetonitrile/methanol mixed solution (75/25, v/v) containing a 4.5-fold volume of internal standard substances (final concentrations: phenacetin: 1 ng/mL, niflumic acid: 15 ng/mL, furosemide: 20 ng/mL) was added to stop the reaction (0 min sample). Subsequently, β-nicotinamide adenine dinucleotide phosphate (final concentration was 1 mM) was added, and after 30 minutes of incubation at 37°C, a certain amount of the mixture was collected, to which an acetonitrile/methanol mixed solution (75/25, v/v) containing a 4.5-fold volume of the internal standard substances was added to stop the reaction (30 min sample). For both samples, a portion of the supernatant after centrifugation (about 1200 × g, 4°C, 15 minutes) was injected into a liquid chromatograph tandem quadrupole mass spectrometer (LC-MS/MS) for analysis. The metabolic stability was evaluated by comparing the test compound/internal standard substance ratio of the 30 min sample with the 0 min sample and calculating the residual ratio of the test compound. […]
# [2] = target: T1, human OX2R (Homo sapiens, UniProt O43614); experiment: Evaluation of OX2R agonist activity (intracellular calcium, CHO-K1 cells with forced expression of human OX2R); type: cell-based; settings: CHO-K1 cells expressing human OX2R; 100% = 5 µM of the reference compound; read-out: hOX2R EC50
# T1 construct: host or cells: CHO-K1 (Chinese Hamster Ovary K1)
# T1 sequence (O43614 1-444): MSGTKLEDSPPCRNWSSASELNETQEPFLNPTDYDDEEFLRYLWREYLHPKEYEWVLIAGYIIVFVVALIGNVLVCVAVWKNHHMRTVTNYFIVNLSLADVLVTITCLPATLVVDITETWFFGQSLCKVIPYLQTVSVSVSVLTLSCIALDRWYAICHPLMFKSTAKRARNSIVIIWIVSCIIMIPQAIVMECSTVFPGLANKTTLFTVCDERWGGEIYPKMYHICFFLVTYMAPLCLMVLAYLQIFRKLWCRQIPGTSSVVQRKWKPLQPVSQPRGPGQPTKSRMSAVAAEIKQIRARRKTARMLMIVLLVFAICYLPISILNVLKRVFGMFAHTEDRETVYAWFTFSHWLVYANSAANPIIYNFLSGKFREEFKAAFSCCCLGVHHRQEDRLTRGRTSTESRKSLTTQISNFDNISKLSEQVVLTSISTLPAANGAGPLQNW
# In short: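 Cells seeded 7500/well, cultured 24 h, loaded with Fluo 4-AM (2.5 µg/mL final) plus probenecid for 30 min. Calcium response read as 480/540 nm excitation ratio; max–min signal 5–7 s after compound addition, normalized to buffer (0%) and 5 µM reference agonist (100%). EC50 from concentration series; 0.5% DMSO final.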
SMILES,Human metabolic stability Residual ratio (%) [1] [%],EC50 [2] [nM],metabolic stability compared to the corresponding compounds that were not deuterated [1]
"CS(=O)(=O)N[C@@H]1[C@H](Cc2cccc(-c3ccccc3)c2F)N(C(=O)[C@@H]2C[C@@H]2F)C2CC1(F)C2 [Example 66, N-[(3S,4R)-5-Fluoro-3-[(2-fluoro[biphenyl]-3-yl)methyl]-2-{[(1S,2S)-2-fluorocyclopropyl]carbonyl}-2-azabicyclo[3.1.1]heptan-4-yl]methanesulfonamide]",,57,
"CS(=O)(=O)N[C@@H]1[C@H](Cc2cccc(-c3ccccc3)c2F)N(C(=O)C2(O)CC2)C2CC1(F)C2 [Example 71, N-{(3S,4R)-5-Fluoro-3-[(2-fluoro[biphenyl]-3-yl)methyl]-2-[(1-hydroxycyclopropyl)carbonyl]-2-azabicyclo[3.1.1]heptan-4-yl}methanesulfonamide]",,39,
"CS(=O)(=O)N[C@H]1C2CC(C2)N(C(=O)C2(CO)CC2)[C@H]1Cc1cccc(-c2ccccc2)c1F [Example 73, N-[(3S,4S)-3-[(2-Fluoro[biphenyl]-3-yl)methyl]-2-{[1-(hydroxymethyl)cyclopropyl]carbonyl}-2-azabicyclo[3.1.1]heptan-4-yl]methanesulfonamide]",,50,
"CS(=O)(=O)N[C@H]1C2CC(C2)N(C(=O)[C@H](O)CF)[C@H]1Cc1cccc(-c2ccccc2)c1F [Example 75, N-{(3S,4S)-3-[(2-Fluoro[biphenyl]-3-yl)methyl]-2-[(2S)-3-fluoro-2-hydroxypropanoyl]-2-azabicyclo[3.1.1]heptan-4-yl}methanesulfonamide]",,78,
"CS(=O)(=O)N[C@@H]1[C@H](Cc2cccc(-c3ccccc3)c2F)N(C(=O)[C@@H]2CC2(F)F)C2CC1(F)C2 [Example 78, N-{(3S,4R)-2-{[(1S)-2,2-Difluorocyclopropyl]carbonyl}-5-fluoro-3-[(2-fluoro[biphenyl]-3-yl)methyl]-2-azabicyclo[3.1.1]heptan-4-yl}methanesulfonamide]",,69,
"CS(=O)(=O)N[C@@H]1[C@H](Cc2cc(F)cc(-c3ccccc3)c2F)N(C(=O)[C@H](O)C(F)(F)F)C2CC1(F)C2 [Example 79, N-{(3S,4R)-3-[(2,5-Difluoro[biphenyl]-3-yl)methyl]-5-fluoro-2-[(2S)-3,3,3-trifluoro-2-hydroxypropanoyl]-2-azabicyclo[3.1.1]heptan-4-yl}methanesulfonamide]",,40,
"[2H]C([2H])([2H])[C@@]([2H])(O)C(=O)N1C2CC(F)(C2)[C@H](NS(=O)(=O)CC)[C@@H]1Cc1cccc(-c2ccccc2)c1F [Example 90, N-{(3S,4R)-5-Fluoro-3-[(2-fluoro[biphenyl]-3-yl)methyl]-2-[(2R)-2-hydroxy(^2H4)propanoyl]-2-azabicyclo[3.1.1]heptan-4-yl}ethanesulfonamide]",,21,
"[2H][C@](C)(O)C(=O)N1C2CC(F)(C2)[C@H](NS(C)(=O)=O)[C@@H]1Cc1cccc(-c2ccccc2)c1F [Example 99, N-{(3S,4R)-5-Fluoro-3-[(2-fluoro[biphenyl]-3-yl)methyl]-2-[(2R)-2-hydroxy(2-^2H)propanoyl]-2-azabicyclo[3.1.1]heptan-4-yl}methanesulfonamide]",78,27,improved metabolic stability
"[2H][C@](C)(O)C(=O)N1C2CC(F)(C2)[C@H](NS(C)(=O)=O)[C@@H]1Cc1cc(F)cc(-c2ccccc2)c1F [Example 100, N-{(3S,4R)-3-[(2,5-Difluoro[biphenyl]-3-yl)methyl]-5-fluoro-2-[(2R)-2-hydroxy(2-^2H)propanoyl]-2-azabicyclo[3.1.1]heptan-4-yl}methanesulfonamide]",70,43,improved metabolic stability

# Continued by falling EC50 [2], values first:
Human metabolic stability Residual ratio (%) [1] [%],EC50 [2] [nM],SMILES,metabolic stability compared to the corresponding compounds that were not deuterated [1]
25,39,"CCS(=O)(=O)NC1C(Cc2cc(F)cc(-c3ccccc3)c2F)N(C(=O)[C@@H](C)O)C2CC1(F)C2 (single isomer, unassigned) [Example 91]",
,37,"C[C@@H](O)C(=O)N1C2CC(C2)[C@H](NS(C)(=O)=O)[C@@H]1Cc1cccc(-c2csc(Cl)c2)c1F [Example 68, N-{(3S,4S)-3-[3-(5-Chlorothiophen-3-yl)-2-fluorobenzyl]-2-[(2R)-2-hydroxypropanoyl]-2-azabicyclo[3.1.1]heptan-4-yl}methanesulfonamide]",
,35,"CS(=O)(=O)N[C@@H]1[C@H](Cc2cccc(-c3ccccc3)c2F)N(C(=O)[C@H](O)C(F)(F)F)C2CC1(F)C2 [Example 69, N-{(3S,4R)-5-Fluoro-3-[(2-fluoro[biphenyl]-3-yl)methyl]-2-[(2S)-3,3,3-trifluoro-2-hydroxypropanoyl]-2-azabicyclo[3.1.1]heptan-4-yl}methanesulfonamide]",
,26,"CS(=O)(=O)N[C@@H]1[C@H](Cc2cccc(-c3ccccc3)c2F)N(C(=O)[C@H]2CCO2)C2CC1(F)C2 [Example 70, N-{(3S,4R)-5-Fluoro-3-[(2-fluoro[biphenyl]-3-yl)methyl]-2-[(2R)-oxetan-2-ylcarbonyl]-2-azabicyclo[3.1.1]heptan-4-yl}methanesulfonamide]",
34,24,"C[C@@H](O)C(=O)N1C2CC(C2)[C@H](NS(C)(=O)=O)[C@@H]1Cc1cccc(-c2ccccc2)c1F [Example 25, N-{(3S,4S)-3-[(2-Fluoro[biphenyl]-3-yl)methyl]-2-[(2R)-2-hydroxypropanoyl]-2-azabicyclo[3.1.1]heptan-4-yl}methanesulfonamide]",
,23,"CC(C(=O)N1C2CC(C2)[C@H](NS(C)(=O)=O)[C@@H]1Cc1cccc(-c2ccccc2)c1F)n1cccn1 (stereo partly drawn) [Example 93, N-{(3S,4S)-3-[(2-Fluoro[biphenyl]-3-yl)methyl]-2-[2-(1H-pyrazol-1-yl)propanoyl]-2-azabicyclo[3.1.1]heptan-4-yl}methanesulfonamide]",
38,22,"C[C@@H](O)C(=O)N1C2CC(F)(C2)[C@H](NS(C)(=O)=O)[C@@H]1Cc1cc(F)cc(-c2ccccc2)c1F [Example 63, N-{(3S,4R)-3-[(2,5-Difluoro[biphenyl]-3-yl)methyl]-5-fluoro-2-[(2R)-2-hydroxypropanoyl]-2-azabicyclo[3.1.1]heptan-4-yl}methanesulfonamide]",
52,19,"[2H]C([2H])([2H])C([2H])(O)C(=O)N1C2CC(F)(C2)C(NS(=O)(=O)CC)C1Cc1cc(F)cc(-c2ccccc2)c1F (single isomer, unassigned) [Example 95, N-{3-[(2,5-Difluoro[biphenyl]-3-yl)methyl]-5-fluoro-2-[2-hydroxy(^2H4)propanoyl]-2-azabicyclo[3.1.1]heptan-4-yl}ethanesulfonamide]",improved metabolic stability
49,19,"C[C@@H](O)C(=O)N1C2CC(F)(C2)[C@H](NS(C)(=O)=O)[C@@H]1Cc1cccc(-c2ccccc2)c1F [Example 53, N-{(3S,4R)-5-Fluoro-3-[(2-fluoro[biphenyl]-3-yl)methyl]-2-[(2R)-2-hydroxypropanoyl]-2-azabicyclo[3.1.1]heptan-4-yl}methanesulfonamide]",
